Test results reported in patent publication US20250215016A1, “ISOXAZOLE-HETEROCYCLIC DERIVATIVE, PHARMACEUTICAL COMPOSITION AND USE” (SHANGHAI SIMR BIOTECHNOLOGY CO., LTD, priority 2022, published 2025).

Key:
[1] = biological target: α5-GABAA receptor (Homo sapiens (Human), UniProt P18507+P31644); assay: Whole-cell patch clamp electrophysiology, inverse regulation activity in α5β3γ2-HEK293 cells; format: cell-based; details: compound 100 nM; GABA 0.05-0.06 μM (about EC7-8); clamped at −60 mV; read-out: Inverse regulation efficiency to α5-GABAA receptor
Source text: α, β and γ subunits are essential for the formation of a complete functional GABAA receptor. […] The specific subunit protein sequences are as follows: α5 subunit (protein sequence can be found in GenBank accession number: NM_000810.3); α2 subunit (protein sequence can be found in GenBank accession number: NM_000807.4); β3 subunit (protein sequence can be found in GenBank accession number: NM_000814.5); γ2 subunit (protein sequence can be found in GenBank accession number: NM_000816.3).
(§1) The above cell lines were subcultured. Amplification of α5β3γ2-HEK293 and α2β3γ2-HEK293 cells was used to test the affinity of the compounds to benzodiazepine site (BZD) of the GABAA receptor. During the passage of α5β3γ2-HEK293 cells, some of the suspended cells were spread on a glass slide pretreated with Poly-D-Lysine for electrophysiological testing.
The inverse regulation activity of the test drugs on α5-GABAA receptor was detected by an electrophysiological method. The specific method was as follows:
Compound concentration setting: the final concentration of the compounds used for compound screening was 100 nM. GABA concentration was 0.05-0.06 μM (about EC7-8). […] The extracellular fluid (ECS) ingredients for electrophysiology were as follows: 150 mM NaCl, 5 mM KCl, 2.5 mM CaCl2, 1 mM MgCl2, 10 mM HEPES and 10 mM glucose (pH 7.4); the electrode internal solution (ICS) formula for electrophysiology was as follows: 140 mM CsCl, 11 mM EGTA, 10 mM HEPES, 2 mM CaCl2, 1 mM MgCl2, 4 mM MgATP, 2 mM TEA (pH 7.3). The above reagents were all purchased from Sigma aldrich. GABA (γ-aminobutyric acid, from sigma aldrich, lot: A5385) powder was prepared into a stock solution with pure water and then diluted in ECS. The compound was first prepared into a 4 mM stock solution with DMSO, and then gradually diluted in corresponding concentrations of GABA-ECS. The solutions were all prepared fresh prior to electrophysiological testing.
Electrophysiological signal acquisition were performed by using EPC 10 amplifier and PatchMaster software (HEKA) or Axon 700 B amplifier and Clampex software (AXON). The recording electrode was made by drawing borosilicate glass (purchased from sutter), and has an electrode resistance of 4˜6 MΩ. Extracellular administration was carried out using ALA-VC-8PG (purchased from ALA, USA) system. A single independently grown cell was selected, and lysis was performed after the glass electrode and the cell forming a good seal, to form a whole cell mode. With the cellular membrane potential clamped at −60 mV, recording was carried out in the Gap-free mode. For the test, extracellular fluid was first applied extracellularly for about 20 seconds. After baseline (Iprebaseline) was stabilized, the extracellular fluid was switched to GABA-ECS. At this time, the current (Igaba) caused by GABA can be detected. At about 20-40 seconds, after the current stabilized, the extracellular fluid was switched to a mixed solution of the compound and GABA-ECS, until the current (Itreatment) caused by both the compound and GABA can be detected. Finally, the solution was switched to the extracellular fluid and the test was terminated after recording for 20-40 seconds.
The experimental results were analyzed using PatchMaster v2x90.1 or PatchMaster v2x90.3 software (EPC 10 amplifier) and Clampex10.6 software (Axon700B amplifier). The current value of each stage was calculated according to the average value of the stabilized current under the corresponding conditions. We defined the control current as Igaba−Iprebaseline, and the current after compound treatment as Itreatment−Iprebaseline. The inverse regulation activity of the compounds is expressed as a percentage and is calculated according to the following formula: Inverse regulation efficiency=[(Itreatment−Igaba)/(Igaba−Iprebaseline)]×100%.

[2] = biological target: human α2β3γ2 receptor (α2-GABAA receptor) (Homo sapiens (Human), UniProt P18507+P47869); assay: Radioligand (3H-flunitrazepam) competition binding assay, BZD site; α2 vs α5 binding selectivity; details: ratio of Ki at α2β3γ2 to Ki at α5β3γ2
Source text: (§2) α, β and γ subunits are essential for the formation of a complete functional GABAA receptor. In this example, HEK293 cell strains stably expressing human α5-GABAA receptor (comprising α5β3γ2 subunit) and α2-GABAA receptor (comprising α2β3γ2 subunit) were constructed and screened, respectively, by liposome transfection method (Felgner, P. L., et al., Proceedings of the National Academy of Sciences, 1987, 84:7413-7417). The specific subunit protein sequences are as follows: α5 subunit (protein sequence can be found in GenBank accession number: NM_000810.3); α2 subunit (protein sequence can be found in GenBank accession number: NM_000807.4); β3 subunit (protein sequence can be found in GenBank accession number: NM_000814.5); γ2 subunit (protein sequence can be found in GenBank accession number: NM_000816.3).
as §1
(§3) Flunitrazepam is a non-specific reagent that binds to the BZD site efficiently. The affinity of the compounds to the BZD sites of the human α5β3γ2 and α2β3γ2 receptors can be determined by competing the compound with ^3H-flunitrazepam (isotope ^3H-labeled flunitrazepam) for binding to these two receptors.
(§4) Membrane preparation: HEK293 cells stably expressing human α5β3γ2 receptor or α2β3γ2 receptor were collected, suspended in 50 mM Tris-HCl buffer (pH=7.4), homogenized on ice by a homogenizer for 20 seconds 10 times, and centrifuged at 4° C., 1000 g for 10 min. The supernatant was collected, and the above steps were repeated. The supernatant was centrifuged (33800 g; centrifuge purchased from Thermo, rotor model: A27-8×50) at 4° C. for 60 min, and the precipitate was resuspended in Tris buffer (50 mM Tris-HCl, 10 mM MgCl2, 0.5 mM EDTA, 10% glycerol). The precipitate was the cell membrane. Protein content was determined by BCA (Bicinchoninic Acid) method (BCA kit from Pierce (Annoron)). The cell membrane was prepared into 1 ml aliquot and stored at −80° C.
(§5) Radioligand competition binding assay: the assay was carried out in a 200 μL system (96-well plate from Agilent) with 100 μL of cell membrane. The concentration of ^3H-flunitazepam (from PerkinElmer, lot: NET567250 UC) was 1 nM and the concentration of test compound was in the range 1×10^−5-10^−6 M. Flumazenil (from Tocris; lot: 1318) was used as a control. 1 μL of 2 mM flumazenil (final concentration 10 μM) was added to the Low signal control well (Low control, LC) and 1 μL of DMSO (from Sigma aldrich, lot: 472301) was added to the High signal control well (High control, HC). The final target membrane protein concentration was 5 μg/well. All test compound sample stocks were 10 mM DMSO solutions. The working concentration of the samples is to dilute all samples with DMSO to 0.2 mM, and then perform 4-fold continuous gradient dilution for a total of 8 concentration gradients. The 96-well plate was sealed with a plate sealing membrane and then incubated on a shaker at room temperature for 1 hour. Meanwhile, GF/C filter plate was soaked with a plate soaking buffer (0.3% PEI, polyethyleneimine, purchased from Sigma aldrich, model: P314, stored at 4° C.) for at least 0.5 hours. After completion of binding incubation, the cells were collected with a cell collector onto the GF/C filter plate and washed four times with a plate washing buffer (50 mM Tris-HCl, pH 7.4, stored at 4° C.). […]

[3] = biological target: human α5β3γ2 receptor (α5-GABAA receptor) (Homo sapiens (Human), UniProt P18507+P31644); assay: Radioligand (3H-flunitrazepam) competition binding assay, BZD site; details: 3H-flunitrazepam 1 nM; HEK293 membranes expressing human α5β3γ2
Source text: as §2, §1, §3, §4, §5

[4] = Stability in simulated gastric fluid (SGF); format: physicochemical; details: 37° C., 1000 rpm
Procedure: Simulated gastric fluid (SGF), Manufacturer: Dongguan Chuangfeng Automation Technology Co., Ltd.; Product model: CF-006.
Oscillating constant temperature metal bath, Model: Thermo; Manufacturer: Digital Skaking Drybath.
Temperature: 37° C.; rotating speed: 1000 rpm; sampling time: 0, 4 hours.
Chromatographic column: Welch Xtimate C18 3.0×100 mm, 5 μm. Mobile phase: A: 0.04% trifluoroacetic acid (TFA)/H2O (v/v), B: acetonitrile (ACN). Gradient elution was performed according to the following table, flow rate: 1.0 mL/min; injection volume: 5 μL; column temperature: 35° C.; wavelength: 254 nm.
• (a) preparation of 0.04% TFA/H2O: 400 μL of TFA was measured, placed into 1 L of H2O, and homogenously mixed; • (b) Sample stock solution: about 3 mg of test sample was weighed, and prepared into a stock solution of 10 mmol/L using DMSO; • (c) 50 μL of the sample stock solution was taken, placed into a 5 mL volumetric flask, made up to the scale with the addition of SGF, and homogenously mixed. 400 μL of the solution was taken, four samples in parallel, and shaken at 1000 rpm and 37° C.; • (d) every two samples were taken after 0 and 4 hours respectively, 400 μL of acetonitrile was added, and homogenously mixed, followed by liquid phase injection, and calculation of the change % of the main peak area in the solution after 4 hours relative to 0 hour, two average value reports being taken at each time point.

Row | Structure (SMILES) | inhibition at 0.1 µM [1] [%] | Selectivity α2 ki/α5 ki [2] [folds] | Ki [3] [nM] | Residual content in simulated gastric juice after 4 hours (compared with 0 hour content) [4]
1 | Cc1onc(-c2ccc(F)cc2)c1COc1ccc(-c2nnc3n2CCCOC3)cn1 [Compound 20, 3-(6-((3-(4-fluorophenyl)-5-methylisoxazol-4-yl)methoxy)pyridin-3-yl)-6,7-dihydro-5H,9H-[1,2,4]triazolo[3,4-c][1,4]oxazepane] | 45 | 109 | 11.2 | 
2 | Cc1nnn(-c2ccc(C(F)F)cc2)c1COc1ccc(-n2cnc(C(F)F)c2)nn1 [WO2020016443A1, Example 15, reference compound] |  | 7.67 |  | 
3 | Cc1onc(-c2ccc(F)cc2)c1COc1ccc(-c2nnc3n2CCCOC3)nn1 [Compound 21, 3-(6-((3-(4-fluorophenyl)-5-methylisoxazol-4-yl)methoxy)pyridazin-3-yl)-6,7-dihydro-5H,9H-[1,2,4]triazolo[3,4-c][1,4]oxazepane] | 46 | 51 | 0.91 | 
4 | COc1ncc(-c2ccc(OCc3c(C)nnn3-c3ccc(C(F)F)cc3)nn2)cn1 [WO2020016443A1, Example 3, reference compound] |  | 14.5 |  | 
5 | Cc1cn2c(n1)CN(c1cnc(OCc3c(-c4ccc(F)cc4)noc3C)cn1)CC2 [Compound 46, 3-(4-fluorophenyl)-5-methyl-4-(((5-(2-methyl-5,6-dihydroimidazo [1,2-a]pyrazin-7(8H)-yl)pyrazin-2-yl)oxy)methyl)isoxazole] | 21 |  | 3.09 | 87% (4 hours)
6 | Cc1ncc(-c2ccc(OCc3c(C)nnn3-c3ccc(C(F)F)cc3)nn2)o1 [WO2020016443A1, Example 6, reference compound] |  | 13.2 |  | 

Next, values leading:

Row | inhibition at 0.1 µM [1] [%] | Selectivity α2 ki/α5 ki [2] [folds] | Ki [3] [nM] | Residual content in simulated gastric juice after 4 hours (compared with 0 hour content) [4] | Structure (SMILES)
7 | 49 | 35.8 | 1.44 |  | Cc1onc(-c2ccc(F)cc2)c1COc1ccc(N2CCn3ccnc3C2)nn1 [Compound 35, 4-(((6-(5,6-dihydroimidazo [1,2-a]pyrazin-7(8H)-yl)pyridazin-3-yl)oxy)methyl)-3-(4-fluorophenyl)-5-methylisoxazole]
8 | 45 | 46.9 | 3.39 |  | Cc1onc(-c2ccc(F)cc2)c1COc1ccc(N2CCn3c(C)nnc3C2=O)nn1 [Compound 36, 7-(6-((3-(4-fluorophenyl)-5-methylisoxazol-4-yl)methoxy)pyridazin-3-yl)-3-methyl-6,7-dihydro-[1,2,4]triazolo[4,3-a]pyrazin-8(H)-one]
9 | 18 |  | 21.8 | 98% (4 hours) | Cc1onc(-c2ccc(F)cc2)c1COc1cnc(N2CCN3CCOC[C@@H]3C2)cn1 [Compound 40, (S)-8-(5-((3-(4-fluorophenyl)-5-methylisoxazol-4-yl)methoxy)pyrazin-2-yl) octahydropyrazino [2,1-c][1,4]oxazine]
